# Reference: patent US8710183B2, “Inhibitors of bacterial tyrosine kinase and uses thereof” (Centre National de la Recherche Scientifique (C.N.R.S.), priority 2008, dated 2014)
# Where no end group is shown, it is not given here.
# What was measured:
# BY-kinase A1B2 = assay: Procedure 1: inhibition of A1B2 autokinase activity (radioactivity incorporated in A1B2); type: biochemical, Staphylococcus aureus; set-up: ActivitY (inhibition): concentration or dose not given beside the values; conditions: for % of inhibition of A1B2 autokinase activity / Radioactivity incorporated in A1B2: A1B2 50 pmole
# Method: 50 pmole of the purified BY-kinase (or the dephosphorylated BY-kinase) are incubated for 15 min to 1 hour in the presence of 50 pmole of the drug in a final volume of 20 microliters. The ratio BY-kinase/drug varies from 1/1 to 1/100. The reaction is performed in a buffer specific of each BY-kinase (pH condition, salt concentrations, etc.). The incubation is then continued for 30″ to 1 h in the presence of 5 microCurie of radioactive ATP (^32P or ^33P) labeled on g-P (specific activity 3000 Ci/mmole) and 50 microMolar non-radioactive ATP. The reaction is stopped by adding 5 microliter of gel-electrophoresis loading buffer 5 fold concentrate and heating 5 min at 100° C.
# (§1) The procedure was applied for A1B2 [34] and CapO [20] Each Gene has been cloned in the pQE30 vector (Qiagen) to allow fusion of a histidines-tag fused to the N-terminal end of either A1B2 or CapO. This overproducing plasmid has been transformed in the Escherichia coli XL 1-blue strain. Cells have been incubated at 37° C. under shaking until A600 reached 0.5. IPTG was then added at a final concentration of 0.5 mM, and growth was continued for 3 h at 37° C. under shaking. Cells were harvested by centrifugation at 3000×g for 10 min, washed in buffer A (Tris-HCl 50 mM pH7.5, Nacl 200 mM, glycerol 10%, imidazole 10 mM) containing DNase I and RNase A at a final concentration of […] each, lysozyme 1 mg/ml, and protease inhibitors cocktail. Cells were disrupted by sonication. The resulting suspension was centrifuged at 4° C. for 30 min at 30,000×g. The supernatant was incubated with Ni-NTA matrix (Qiagen), suitable for purification of 6 histidines fusion proteins, for 30 min at 4° C. under gentle shaking. The protein-resin complex was packed into a column for washing and elution steps. The column was washed with buffer B (Tris-HCl 50 mM pH7.5, Nacl 200 mM, glycerol 10%, imidazole 20 mM). Protein elution was carried out with buffer C (Tris-HCl 50 mM pH7.5, NaCl 200 mM, glycerol 10%, imidazole 150 mM). Eluted fractions were collected, analyzed by SDS-PAGE. Appropriated fractions are pooled and dialyzed overnight against buffer D (Tris-HCl 50 mM, pH7.5, NaCl 100 mM, DTT 1 mM, MgCl2 1 mM, glycerol 20%) and used for inhibitory tests or stored at +4° C., −20° C., or −80° C.
# According to procedure 1, 50 pmole of A1B2 were incubated with either, 0 pmole, 50 pmole, or 500 pmole, or 5 nmol of BYK001 for 15 min at 37° C. in a final volume of […]. Then, incubation was continued for 30″, or 1′, or 2′ or 5′ in the presence of […] of [g-^32P] ATP (specific activity 3000 Ci/mmole). The amount of radioactivity incorporated in A1B2 was determined by fluid scintillation counting after gel-electophoresis. The percentage of inhibition of A1B2 autokinase activity is expressed relatively to the radioactivity incorporated in A1B2 when incubated without BYK001.
# [1] = system: BY-kinase A1B2 (substrate CapO); assay: Procedure 2: inhibition of CapO phosphorylation by A1B2 (radioactivity incorporated in CapO); type: biochemical, Staphylococcus aureus; conditions: A1B2 50 pmol, CapO 50 pmole
# Method: The procedure 2 is based on procedure 1, except that 5 pmole to 100 pmole of the protein substrate are also added either in the same time as the drug or concomitant with the radioactive ATP and the non-radioactive ATP.
# as §1
# According to procedure 2, 50 pmol of A1B2 and 50 pmole of a substrate of A1B2, namely the protein CapO, were incubated with either 50 pmole, or 500 pmole, or 5 nmol of BYK001 for 15 min at 37° C. in a final volume of […]. Then, incubation was continued for 30″, or 1′, or 2′ or 5′ in the presence of […] of [g-^32P] ATP (specific activity 3000 Ci/mmole). The amount of radioactivity incorporated in CapO was determined by fluid scintillation counting after gel-electophoresis. The percentage of inhibition of CapO phosphorylation by A1B2 is expressed relatively to CapO radioactivity when incubation was performed without BYK001.
# [2] = BYK001 50 pmole, incubation time 0.5 min
# [3] = BYK001 50 pmole, incubation time 1 min
# [4] = BYK001 50 pmole, incubation time 2 min
# [5] = BYK001 50 pmole, incubation time 5 min
# [6] = BYK001 500 pmole, incubation time 0.5 min
# [7] = BYK001 500 pmole, incubation time 1 min
# [8] = BYK001 500 pmole, incubation time 2 min
# [9] = BYK001 500 pmole, incubation time 5 min
# [10] = BYK001 5000 pmole, incubation time 0.5 min
# [11] = BYK001 5000 pmole, incubation time 1 min
# [12] = BYK001 5000 pmole, incubation time 2 min
# [13] = BYK001 5000 pmole, incubation time 5 min
substance,measurement,setting,value
BYK001: peptide with adenine PNA on lysine side chain: S-A-S-Y-Y-A-Y-K(PNA)-G-T-D; native S. aureus tyrosine cluster sequence (SASYYAYK(adenine PNA)GTD),% of inhibition of A1B2 autokinase activity,BY-kinase A1B2; [2],17.54%
same,Radioactivity incorporated in A1B2,BY-kinase A1B2; [2],29233 cpm
same,% of inhibition of A1B2 autokinase activity,BY-kinase A1B2; [3],16.10%
same,Radioactivity incorporated in A1B2,BY-kinase A1B2; [3],71683 cpm
same,% of inhibition of A1B2 autokinase activity,BY-kinase A1B2; [4],16.63%
same,Radioactivity incorporated in A1B2,BY-kinase A1B2; [4],132537 cpm
same,% of inhibition of A1B2 autokinase activity,BY-kinase A1B2; [5],14.68%
same,Radioactivity incorporated in A1B2,BY-kinase A1B2; [5],325711 cpm
same,% of inhibition of A1B2 autokinase activity,BY-kinase A1B2; [6],13.31%
same,Radioactivity incorporated in A1B2,BY-kinase A1B2; [6],30734 cpm
same,% of inhibition of A1B2 autokinase activity,BY-kinase A1B2; [7],15.17%
same,Radioactivity incorporated in A1B2,BY-kinase A1B2; [7],72475 cpm
same,% of inhibition of A1B2 autokinase activity,BY-kinase A1B2; [8],15.95%
same,Radioactivity incorporated in A1B2,BY-kinase A1B2; [8],133624 cpm
same,% of inhibition of A1B2 autokinase activity,BY-kinase A1B2; [9],14.87%
same,Radioactivity incorporated in A1B2,BY-kinase A1B2; [9],324983 cpm
same,% of inhibition of A1B2 autokinase activity,BY-kinase A1B2; [10],15.67%
same,Radioactivity incorporated in A1B2,BY-kinase A1B2; [10],29899 cpm
same,% of inhibition of A1B2 autokinase activity,BY-kinase A1B2; [11],15.11%
same,Radioactivity incorporated in A1B2,BY-kinase A1B2; [11],72528 cpm
same,% of inhibition of A1B2 autokinase activity,BY-kinase A1B2; [12],11.30%
same,Radioactivity incorporated in A1B2,BY-kinase A1B2; [12],141005 cpm
same,% of inhibition of A1B2 autokinase activity,BY-kinase A1B2; [13],15.20%
same,Radioactivity incorporated in A1B2,BY-kinase A1B2; [13],323749 cpm
same,ActivitY (inhibition),"BY-kinase A1B2; Table 5, inhibition of BY-kinase A1B2",15.00%
same,inhibitory effect on BY-kinase A1B2,BY-kinase A1B2; conclusion from procedures 1 and 2,inhibitory effect
same,inhibition,BY-kinase A1B2; summary,around 15%
same,% of inhibition of CapO phosphorylation by A1B2,[1]; [2],10.05%
same,Radioactivity incorporated in CapO,[1]; [2],3555 cpm
same,% of inhibition of CapO phosphorylation by A1B2,[1]; [3],9.33%
same,Radioactivity incorporated in CapO,[1]; [3],6388 cpm
same,% of inhibition of CapO phosphorylation by A1B2,[1]; [4],10.69%
same,Radioactivity incorporated in CapO,[1]; [4],15498 cpm
same,% of inhibition of CapO phosphorylation by A1B2,[1]; [5],8.11%
same,Radioactivity incorporated in CapO,[1]; [5],31901 cpm
same,% of inhibition of CapO phosphorylation by A1B2,[1]; [6],11.51%
same,Radioactivity incorporated in CapO,[1]; [6],3497 cpm
same,% of inhibition of CapO phosphorylation by A1B2,[1]; [7],10.55%
same,Radioactivity incorporated in CapO,[1]; [7],6302 cpm
same,% of inhibition of CapO phosphorylation by A1B2,[1]; [8],10.40%
same,Radioactivity incorporated in CapO,[1]; [8],15549 cpm
same,% of inhibition of CapO phosphorylation by A1B2,[1]; [9],9.99%
same,Radioactivity incorporated in CapO,[1]; [9],31251 cpm
same,% of inhibition of CapO phosphorylation by A1B2,[1]; [10],11.11%
same,Radioactivity incorporated in CapO,[1]; [10],3513 cpm
same,% of inhibition of CapO phosphorylation by A1B2,[1]; [11],10.36%
same,Radioactivity incorporated in CapO,[1]; [11],6315 cpm
same,% of inhibition of CapO phosphorylation by A1B2,[1]; [12],10.85%
same,Radioactivity incorporated in CapO,[1]; [12],15471 cpm
same,% of inhibition of CapO phosphorylation by A1B2,[1]; [13],10.78%
same,Radioactivity incorporated in CapO,[1]; [13],30974 cpm
